These results are taken from US8652523B2, “Oral pharmaceutical formulation in the form of a plurality of microcapsules for prolonged release of active principle(s) with slow solubility” (Flamel Technologies, priority 2002, dated 2014).

In brackets after ≈: the same amount, converted by molar mass. A value given as a limit tells only on which side of the number the result lay.

A short description of data set [1]: Method for measuring solubility of AP in aqueous solution containing solubilizing agent Cremophor RH 40 (37° C., 6 hours, filtration, HPLC). In kind it is physicochemical. How it is done:
The solution is stirred at 37° C. for 6 hours and then filtered through a filter with a 0.2 μm pore diameter. The content of solubilized AP is evaluated by HPLC chromatography or any other suitable analytical technique.
The ability of the solubilizing agent, made of Cremophor® RH 40, to solubilize an active principle, made up of spironolactone, is tested according to the following method for measuring solubility:
The AP is introduced into an aqueous solution containing the solubilizing agent. The solution is stirred at 37° C. for 6 hours and is then filtered through a filter with a 0.2 μm pore diameter. The content of solubilized AP is evaluated by HPLC.

Data set [2] in a line: Increase in solubility of spironolactone in aqueous solution at pH 6.8, 25° C. In kind it is physicochemical. Particulars: pH 6.8, aqueous buffer, without solubilizing agent.

The solubility is how much of the substance goes into solution per volume. Consider `CC(=O)S[C@@H]1CC2=CC(=O)CC[C@]2(C)[C@H]2CC[C@@]3(C)[C@@H](CC[C@@]34CCC(=O)O4)[C@H]12` [spironolactone], for which the “(Spironolactone) dissolved in solution” value in data set [1] (Cremophor RH 40 0 % w/w at 37° C.) is under 0.1 mg/mL; in data set [1] (Cremophor RH 40 1 % w/w at 37° C.) it was 0.1 mg/mL; in data set [1] (Cremophor RH 40 2 % w/w at 37° C.), 0.2 mg/mL; in data set [1] (Cremophor RH 40 5 % w/w at 37° C.), 0.4 mg/mL; in data set [1] (Cremophor RH 40 10 % w/w at 37° C.), 0.8 mg/mL; in data set [1] (Cremophor RH 40 20 % w/w at 37° C.), 1.4 mg/mL. This molecule registered a solubility in data set [2] of about 38 µg/mL (≈ 91.2 µM).
